# Source: patent publication US9770439B2, “Hepatitis C virus inhibitors” (priority 2013, dated 2017)
# Where two headings read alike, the source gives them in different places.
# What was measured:
# Format in all cases: cell-based
# [1] = system: HCV replicon, genotype 1a L31V variant with leucine 31 changed to valine in the NS5A protein; conditions: genotype 1a L31V replicon; test compound titrated with compound N47 fixed at 200 nM versus titrated singly
# [2] = system: HCV replicon, genotype 1a Y93H variant with tyrosine 93 changed to histidine in the NS5A protein; conditions: genotype 1a Y93H replicon; test compound titrated with compound N47 fixed at 200 nM versus titrated singly
# Description: Combinations can be examined for synergistic activity using a variety of putative NS5A-targeting compounds and a variety of test compounds. […] The test compound can be chosen from compounds exemplified below, which were prepared by methods known in the art, or from others disclosed in the literature.
# Similarly, BMS-790052 can be tested singly and in combination with a fixed amount of compound N47 in the HCV replicon cell based assay consisting of the genotype 1a Y93H variant with tyrosine 93 changed to histidine in the NS5A protein.
# [3] = system: HCV replicon, genotype-1a variant with glutamine 30 changed to glutamate in the NS5A protein
# Text: The NS5A synergistic inhibitory effect of test compounds can be determined using various amounts of an NS5A-targeting compound with titration of a second compound of interest. […] In one embodiment, the HCV genotype strain can be genotype 1a containing a change at amino acid 30 of the NS5A protein consisting of glutamine to glutamate. The test compound can be chosen from compounds listed above or from others present in the literature.
Structure (SMILES),Fold - Synergistic G-1a (L31V) [1] [Fold],Fold - Synergistic G-1a (Y93H) [2] [Fold],Fold-Synergistic 1a (Q30E) [3],"Fold-Synergistic 1a (Q30E) ([3]; ranking of synergist activity, test compound titrated with BMS-790052 fixed at 200 nM, genotype 1a Q30E replicon)"
COC(=O)N[C@@H](C(=O)N1CCCC1c1ncc(-c2ccc(-c3ccc(-c4cnc([C@@H]5CCCN5C(=O)[C@H]5CCCO5)[nH]4)cc3)cc2)[nH]1)c1ccccc1 (stereo partly shown),<10,<10,,
CC[C@H]1CC[C@@H](c2ncc(-c3ccc(-c4ccc(-c5cnc([C@@H]6CC[C@H](CC)N6C(=O)[C@@H](NC(=O)OC)C(C)C)[nH]5)cc4)cc3)[nH]2)N1C(=O)C(NC(=O)OC)C(C)C (stereo partly shown),>100,>100,,
CN(C)[C@H](C(=O)N1CCCC[C@H]1c1ncc(-c2ccc(-c3ccc(-c4cnc([C@@H]5CCCCN5C(=O)[C@@H](c5ccccc5)N(C)C)[nH]4)cc3)cc2)[nH]1)c1ccccc1,<10,>10,,
COC(=O)N[C@H](C(=O)N1[C@H]2C[C@@]2(C)C[C@H]1c1ncc(-c2ccc(-c3ccc(-c4cnc([C@@H]5C[C@@H]6C[C@@H]6N5C(=O)[C@@H](NC(=O)OC)C(C)C)[nH]4)cc3)cc2)[nH]1)C(C)C,>100,>100,,
CN(C)[C@@H](C(=O)N1CCC[C@H]1C(=O)Nc1cccc(-c2ncc(-c3ccc4nc([C@@H]5CCCN5C(=O)[C@@H](c5ccccc5)N(C)C)[nH]c4c3)o2)c1)c1ccccc1,,10,,
O=C(C(=O)N1C(c2nc(-c3ccc(-c4ccc(-c5c[nH]c(C6C[C@@H]7C[C@@H]7N6C(=O)C(=O)N6CCC(F)(F)CC6)n5)cc4)cc3)c[nH]2)C[C@@H]2C[C@@H]21)N1CCC(F)(F)CC1 (stereo partly shown) [Compound W-243],,,>100,
COC(=O)N[C@H](C(=O)CN1C(c2ncc(-c3ccc(C#Cc4ccc5c(ccc6[nH]c([C@@H]7C[C@H]8C[C@H]8N7C(=O)[C@@H](NC(=O)OC)C(C)C)nc65)c4)cc3)[nH]2)C[C@H]2C[C@H]21)C(C)C (stereo partly shown),<10,>10,,
COC(c1ccccc1)C1(C(=O)N[C@H](c2nc(-c3ccc(-c4ccc(-c5c[nH]c([C@@H](NC(=O)C6(C(OC)c7ccccc7)CC6)C(C)(C)C)n5)cc4)cc3)c[nH]2)C(C)(C)C)CC1 (stereo partly shown) [Example N-137],,,,<10
"COc1ccccc1C(O)C1(C(=O)N[C@H](c2nc(-c3ccc(-c4ccc(-c5c[nH]c([C@@H](NC(=O)C6(C(O)c7ccccc7OC)CC6)C(C)(C)C)n5)cc4)cc3)c[nH]2)C(C)(C)C)CC1 (single isomer, unassigned) [Compound N-135B]",,,>100,
CN(C)[C@@H](C(=O)N1CCC[C@H]1C1=NC(c2ccc(OCc3ccc(-c4c[nH]c([C@@H]5CCCN5C(=O)[C@@H](c5ccccc5)N(C)C)n4)cc3)cc2)CN1)c1ccccc1 (stereo partly shown),<10,<10,,
"COC(C)(CCO)C(=O)N[C@H](c1nc(-c2ccc(-c3ccc(-c4cnc([C@@H](NC(=O)C(C)(CCO)OC)C(C)(C)C)[nH]4)cc3)cc2)c[nH]1)C(C)(C)C (single isomer, unassigned) [Compound W-259]",,,>100,
CCOC(=O)NC1(C(=O)N[C@H](c2nc(-c3ccc(-c4ccc(-c5c[nH]c([C@@H](NC(=O)C6(NC(=O)OCC)CCCCC6)C(C)(C)C)n5)cc4)cc3)c[nH]2)C(C)(C)C)CCCCC1 [Compound W-250],,,>100,
COC(=O)N[C@H](C(=O)N1CC[C@H](C)C1c1ncc(-c2ccc(-c3ccc(-c4cnc([C@@H]5[C@@H](C)CCN5C(=O)[C@@H](NC(=O)OC)C(C)C)[nH]4)cc3)cc2)[nH]1)C(C)C (stereo partly shown),>100,>100,,
COC(=O)N[C@H](C(=O)N1C2CC2CC[C@H]1c1ncc(-c2ccc(-c3ccc(-c4cnc([C@@H]5CCC6CC6N5C(=O)[C@@H](NC(=O)OC)C(C)C)[nH]4)cc3)cc2)[nH]1)C(C)C (stereo partly shown),>100,>100,,
COC(=O)N[C@H](C(=O)N1C[C@H](C)C[C@H]1c1ncc(-c2ccc(-c3ccc4cc(-c5cnc([C@@H]6C[C@@H](C)CN6C(=O)[C@@H](NC(=O)OC)C(C)C)[nH]5)ccc4c3)cc2)[nH]1)C(C)C,<10,>10,,
CC1([C@H](NC(=O)[C@]2(C)CCCC[C@@H]2O)c2ncc(-c3ccc(-c4ccc(-c5cnc([C@@H](NC(=O)[C@]6(C)CCCC[C@@H]6O)C6(C)CC6)[nH]5)cc4)cc3)[nH]2)CC1 [Compound Y-116],,,>100,
COC(=O)N[C@H](C(=O)N1C(c2ncc(-c3ccc(-c4ccc(-c5cnc([C@@H]6CCC7CC7N6C(=O)[C@@H](NC(=O)OC)C(C)C)[nH]5)cc4)cc3)[nH]2)CCC2CC21)C(C)C (stereo partly shown),>100,>100,,

Structure (SMILES),Fold - Synergistic G-1a (L31V) [1] [Fold],Fold - Synergistic G-1a (Y93H) [2] [Fold],Fold-Synergistic 1a (Q30E) [3],"Fold-Synergistic 1a (Q30E) ([3]; ranking of synergist activity, test compound titrated with BMS-790052 fixed at 200 nM, genotype 1a Q30E replicon)"
COC(=O)N[C@H](C(=O)N1CCCC1c1nc2ccc(C#CC#Cc3ccc4nc([C@@H]5CCCN5C(=O)[C@@H](NC(=O)OC)C(C)C)[nH]c4c3)cc2[nH]1)C(C)C (stereo partly shown),>100,>10,,
COC(=O)N[C@H](C(=O)N1CCCC1c1cn(-c2ccc(-c3ccc(-n4cnc([C@@H]5CCCN5C(=O)[C@@H](NC(=O)OC)C(C)C)c4)cc3)cc2)cn1)C(C)C (stereo partly shown),>10,>10,,
COC(=O)N[C@H](C(=O)N1CCCC1c1ncc(C#Cc2ccc3cc(C#Cc4cnc([C@@H]5CCCN5C(=O)[C@@H](NC(=O)OC)C(C)C)[nH]4)ccc3c2)[nH]1)C(C)C (stereo partly shown),>10,<10,,
O=C(Cc1ccccc1)N1CCCC1c1nc2cc(-c3ccc4nc([C@@H]5CCCN5C(=O)Cc5ccccc5)[nH]c4c3)ccc2[nH]1 (stereo partly shown),<10,<10,,
"COc1ccccc1C(O)C1(C(=O)N[C@H](c2nc(-c3ccc(-c4ccc(-c5c[nH]c([C@@H](NC(=O)C6(C(O)c7ccccc7OC)CC6)C(C)(C)C)n5)cc4)cc3)c[nH]2)C(C)(C)C)CC1 (single isomer, unassigned) [Compound N-135A]",,,>100,
COC(=O)N[C@H](C(=O)N1C(c2ncc(-c3ccc(-c4cc5cc(-c6c[nH]c([C@@H]7C[C@H]8C[C@H]8N7C(=O)[C@@H](NC(=O)OC)C7CCOCC7)n6)ccc5o4)cc3)[nH]2)C[C@H]2C[C@H]21)C1CCOCC1 (stereo partly shown),<10,<10,,
COC(=O)N[C@H](C(=O)N1CCCC1c1nc2ccc(-c3ccc4cc(-c5ccc6nc([C@@H]7CCCN7C(=O)[C@@H](NC(=O)OC)C(C)C)[nH]c6c5)ccc4n3)cc2[nH]1)C(C)C (stereo partly shown),>10,>10,,
CC1([C@H](NC(=O)C2CCC(F)(F)CC2)c2cc3ccc(C#Cc4ccc5nc([C@@H](NC(=O)C6CCC(F)(F)CC6)C6(C)CC6)[nH]c5c4)cc3[nH]2)CC1 [Compound B67],,,>100,
COC(=O)N[C@H](C(=O)CN1[C@@H]2C[C@@H]2C[C@H]1c1nc2ccc3cc(C#Cc4ccc5c(ccc6nc([C@@H]7C[C@H]8C[C@H]8N7C(=O)[C@@H](NC(=O)OC)C(C)C)[nH]c65)c4)ccc3c2[nH]1)C(C)C,>10,>10,,
CC(C)(C)C(=O)NC(c1ncc(-c2ccc(-c3ccc(-c4cnc([C@@H](NC(=O)C(C)(C)C)C5(C)CCC5)[nH]4)cc3)cc2)[nH]1)C1(C)CCC1 (stereo partly shown) [Compound Y-39],,,>100,
COC(=O)N[C@H](C(=O)N1C[C@@H](C)CC1c1ncc(-c2ccc(-c3ccc4cc(-c5cnc([C@@H]6C[C@H](C)CN6C(=O)[C@@H](NC(=O)OC)C(C)C)[nH]5)ccc4c3)cc2)[nH]1)C(C)C (stereo partly shown),<10,>10,,
COC(=O)N[C@H](C(=O)N1[C@@H]2C[C@@H]2C[C@H]1C(=O)Nc1ccc(C23CCC4C5CC6(c7ccc(NC(=O)[C@@H]8C[C@H]9C[C@H]9N8C(=O)[C@@H](NC(=O)OC)C(C)C)cc7)CC4C(C2)C(C6)C5C3)cc1)C(C)C,<10,<10,,
COC(=O)N[C@H](C(=O)N1[C@@H]2C[C@@H]2C[C@H]1c1ncc(-c2ccc(C#Cc3ccc(-c4cnc([C@@H]5C[C@H]6C[C@H]6N5C(=O)[C@@H](NC(=O)OC)C(C)C)[nH]4)cc3)cc2)[nH]1)C(C)C,<10,>10,,
COC(=O)N[C@@H](C(=O)N1CCC[C@H]1c1nc2ccc(C3=NCC(c4ccc(N5CCOCC5)cc4)O3)cc2[nH]1)c1ccccc1 (stereo partly shown),<10,<10,,
COC(=O)N[C@H](C(=O)N1C2C[C@@H]2C[C@H]1c1ncc(-c2ccc(C#Cc3ccc(-c4cnc([C@@H]5C[C@H]6C[C@H]6N5C(=O)[C@@H](NC(=O)OC)C(C)C)[nH]4)cc3)cc2)[nH]1)C(C)C (stereo partly shown),<10,>10,,
Cc1nc2cccc(-c3ncc(-c4ccc5nc([C@@H]6CCCN6C(=O)[C@@H](c6ccccc6)N(C)C)[nH]c5c4)o3)c2[nH]1,>10,,,
